Literature values as cited in patent EP0773217A1, “Benzothiphene derivatives for treating resistant tumors” (ELI LILLY AND COMPANY, priority 1995, dated 1997).
Values after ≈ are worked out from the molar mass of the structure shown.

Assays:
[1] = tested on: HL60/S cells; settings: no P-glycoprotein expression
[2] = tested on: HL60/Adr cells; settings: HL60/Adr cells (resistant to doxorubicin, express p190, no P-glycoprotein)

COc1cccc2c1C(=O)c1c(O)c3c(c(O)c1C2=O)C[C@@](O)(C(=O)CO)C[C@@H]3O[C@H]1C[C@H](N)[C@H](O)[C@H](C)O1 [ADRIAMYCIN™, Doxorubicin]
IC50 [1]: 0.011 µg/mL (≈ 0.0202 µM)
IC50 [2]: 2.2 µg/mL (≈ 4.05 µM)

COc1cc([C@@H]2c3cc4c(cc3[C@@H](O[C@@H]3O[C@@H]5CO[C@@H](C)O[C@H]5[C@H](O)[C@H]3O)[C@H]3COC(=O)[C@H]23)OCO4)cc(OC)c1O [ETOPOSIDE™, etoposide]
IC50 [1]: 0.39 µg/mL (≈ 0.663 µM)
IC50 [2]: > 10 µg/mL
